Like-named read-outs stand apart in the source and are kept apart here.
Key:
human TTK = target: T1, human TTK (Homo sapiens, UniProt P33981); assay: TTK inhibition assay (indirect ELISA); format: biochemical; details: read-out: TTK IC50 Range
T1 construct: amino terminal GST fusion of full length human TTK; purchased Invitrogen
T1 sequence (P33981 1-857): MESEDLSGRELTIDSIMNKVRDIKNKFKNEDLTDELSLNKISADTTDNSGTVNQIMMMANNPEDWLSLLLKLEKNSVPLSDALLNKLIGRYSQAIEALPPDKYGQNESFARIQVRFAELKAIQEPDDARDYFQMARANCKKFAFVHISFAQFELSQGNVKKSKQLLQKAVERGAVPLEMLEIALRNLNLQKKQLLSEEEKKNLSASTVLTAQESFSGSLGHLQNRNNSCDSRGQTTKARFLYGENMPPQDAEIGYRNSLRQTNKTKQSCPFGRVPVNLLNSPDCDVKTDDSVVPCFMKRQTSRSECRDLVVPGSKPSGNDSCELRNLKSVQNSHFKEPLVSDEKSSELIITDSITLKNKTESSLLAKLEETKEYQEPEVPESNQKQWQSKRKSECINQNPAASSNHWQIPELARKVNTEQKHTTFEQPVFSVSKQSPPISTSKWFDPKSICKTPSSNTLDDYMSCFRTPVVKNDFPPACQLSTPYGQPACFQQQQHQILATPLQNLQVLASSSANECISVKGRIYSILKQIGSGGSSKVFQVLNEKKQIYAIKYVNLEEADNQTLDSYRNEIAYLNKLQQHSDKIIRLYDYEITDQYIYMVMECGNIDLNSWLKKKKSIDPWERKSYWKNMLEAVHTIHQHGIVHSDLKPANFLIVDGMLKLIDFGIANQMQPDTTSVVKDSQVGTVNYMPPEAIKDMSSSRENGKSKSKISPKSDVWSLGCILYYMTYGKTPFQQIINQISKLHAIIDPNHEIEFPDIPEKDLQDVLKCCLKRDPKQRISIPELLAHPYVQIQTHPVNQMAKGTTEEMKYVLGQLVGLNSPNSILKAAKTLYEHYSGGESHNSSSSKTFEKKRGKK

[1] = system: ovarian cancer cells (PA-1); assay: Cancer cell line growth inhibition (SRB assay); format: cell-based; details: read-out: Cancer Cell Line GI50 Range PA-1
Breast cancer cells = assay: Cancer cell line growth inhibition (SRB assay); format: cell-based; details: Homo sapiens; MDA-MB-468; read-out: Cancer Cell Line GI50 Range MDA-MB-468
[2] = system: colon cancer cells (HCT116); assay: Cancer cell line growth inhibition (SRB assay); format: cell-based; details: Homo sapiens, HCT-116, read-out: Cancer Cell Line GI50 Range HCT116

IC50 (human TTK) [nM]	GI50 ([1]; Homo sapiens, PA-1) [nM]	GI50 (Breast cancer cells) [nM]	GI50 [2] [nM]	GI50 ([1]; PA-1 ovarian cancer cells, SRB assay) [nM]	GI50 ([2]; HCT116 colon cancer cells, SRB assay) [nM]	SMILES
< 100	100 to 500	100 to 500	100 to 500	–	–	CCC(CC)(CNC(=O)c1ccc2[nH]nc(-c3ccc(OC4CCN(C)CC4)cc3)c2c1)c1ccccc1 [Example A440, N-(2-ethyl-2-phenylbutyl)-3-(4-((1-methylpiperidin-4-yl)oxy)phenyl)-1H-indazole-5-carboxamide]
< 100	100 to 500	100 to 500	100 to 500	–	–	O=C(N[C@H](c1ccccn1)C1CCCC1)c1ccc2[nH]nc(-c3ccc(OC4CCN(C[C@@H](O)C(F)(F)F)CC4)cc3)c2c1 [Example A229, N((S)-cyclopentyl(pyridin-2-yl)methyl)-3-(4-((1-((R)-3,3,3-trifluoro-2-hydroxypropyl)piperidin-4-yl)oxy)phenyl)-1H-indazole-5-carboxamide]
< 100	100 to 500	100 to 500	100 to 500	–	–	CC(C)[C@H](NC(=O)c1ccc2[nH]nc(-c3ccc4c(c3)C(=O)CC3(CN(C)C3)O4)c2c1)c1ccccc1Cl [Example A255, (S)-N-(1-(2-chlorophenyl)-2-methylpropyl)-3-(1-methyl-4′-oxospiro[azetidine-3,2′-chroman]-6′-yl)-1H-indazole-5-carboxamide]
100 to 500	> 500	> 500	> 500	–	–	CC1(C)CC(=O)c2cc(-c3n[nH]c4ccc(C(=O)NCC5(N6CCOCC6)CCCCC5)cc34)ccc2O1 [Example A490, 3-(2,2-dimethyl-4-oxochroman-6-yl)-N-((1-morpholinocyclohexyl)methyl)-1H-indazole-5-carboxamide]
< 100	> 500	> 500	> 500	–	–	CC1=CC(C)(C)Oc2ccc(-c3n[nH]c4ccc(C(=O)N[C@H](c5ccccn5)C5CC5)cc34)cc21 [Example A237, (S)-N-(cyclopropyl(pyridin-2-yl)methyl)-3-(2,2,4-trimethyl-2H-chromen-6-yl)-1H-indazole-5-carboxamide]
100 to 500	> 500	> 500	> 500	–	–	CN1CC2(CC(O)c3cc(-c4n[nH]c5ccc(C(=O)N[C@H](c6ccccc6)C6CC6)cc45)ccc3O2)C1 (stereo partly drawn) [Example A256, N-((S)-cyclopropyl(phenyl)methyl)-3-(4′-hydroxy-1-methylspiro(azetidine-3,2-chroman]-6′-yl)-1H-indazole-5-carboxamide]
< 100	100 to 500	100 to 500	100 to 500	–	–	CN1CCC(Oc2ccc(-c3n[nH]c4ccc(C(=O)NC(c5ccccn5)C5CCCCC5)cc34)cc2)CC1 (stereo not shown) [Example A409, N-(cyclohexyl(pyridin-2-yl)methyl)-3-(4-((1-methylpiperidin-4-yl)oxy)phenyl)-1H-indazole-5-carboxamide]
< 100	< 100	< 100	< 100	–	–	O=C(N[C@@H](c1ncccn1)C1CCCC1)c1ccc2[nH]nc(-c3ccc(N4CC(C5COC5)C4)cc3)c2c1 [Example A312, (R)-N-(cyclopentyl(pyrimidin-2-yl)methyl)-3-(4-(3-(oxetan-3-yl)azetidin-1-yl)phenyl)-1H-indazole-5-carboxamide]
< 100	100 to 500	100 to 500	100 to 500	–	–	O=C(N[C@H](c1ccccn1)C1CC1)c1ccc2[nH]nc(-c3ccc4c(c3)C(=O)CC3(CCOCC3)O4)c2c1 [Example A262, (S)-N-(cyclopropyl(pyridin-2-yl)methyl)-3-(4-oxo-2′,3′,5′,6′-tetrahydrospiro[chroman-2,4′-pyran]-6-yl)-1H-indazole-5-carboxamide]
< 100	100 to 500	> 500	100 to 500	–	–	CN1CCC(Oc2ccc(-c3n[nH]c4ccc(C(=O)NC(c5ccccn5)C(C)(C)C)cc34)cc2)CC1 (stereo not shown) [Example A388]
< 100	100 to 500	–	100 to 500	–	–	CC(C)(O)C(=O)N1CCC(Oc2ccc(-c3n[nH]c4ccc(C(=O)N[C@H](c5ccccc5)C5CC5)cc34)cc2)CC1 [Example A381, (S)-N-(cyclopropyl(phenyl)methyl)-3-(4-((1-(2-hydroxy-2-methylpropanoyl)piperidin-4-yl)oxy)phenyl)-1H-indazole-5-carboxamide]
< 100	100 to 500	–	100 to 500	–	–	CC(C)[C@H](NC(=O)c1ccc2[nH]nc(-c3ccc(OC4CCN(C5COC5)CC4)nc3)c2c1)c1ccccc1Cl [Example A294, (S)-N-(1-(2-chlorophenyl)-2-methylpropyl)-3-(6-((1-(oxetan-3-yl)piperidin-4-yl)oxy)pyridin-3-yl)-1H-indazole-5-carboxamide]
< 100	–	–	–	> 500	> 500	O=C(NCC1(CN2CCOCC2)CC1)c1ccc2[nH]nc(-c3ccc(N4CCOCC4)cc3)c2c1 [Example A494, N-((1-(morpholinomethyl)cyclopropyl)methyl)-3-(4-morpholinophenyl)-1H-indazole-5-carboxamide]

SMILES	IC50 (human TTK) [nM]	GI50 ([1]; Homo sapiens, PA-1) [nM]	GI50 (Breast cancer cells) [nM]	GI50 [2] [nM]	GI50 ([1]; PA-1 ovarian cancer cells, SRB assay) [nM]	GI50 ([2]; HCT116 colon cancer cells, SRB assay) [nM]
CC(C)C[C@H](NC(=O)c1ccc2[nH]nc(-c3ccc(N4[C@@H]5CCC[C@H]4COC5)cc3)c2c1)c1ccccc1Cl [Example A417, 3-(4-((1R,5S)-3-oxa-9-azabicyclo[3.3.1]nonan-9-yl)phenyl)-N-((S)-(2-chlorophenyl)-3-methylbutyl)-1 H-indazole-5-carboxamide]	< 100	100 to 500	100 to 500	100 to 500	–	–
O=C(N[C@H](c1ccccn1)C1CC1)c1cc2c(-c3ccc(N4C5CCC4CC(O)C5)cc3)n[nH]c2cc1F (stereo partly drawn) [Example A271, N-((S)-cyclopropyl(pyridin-2-yl)methyl)-6-fluoro-3-(4-((1R,3R,5S)-3-hydroxy-8-azabicyclo[3.2.1]octan-8-yl)phenyl)-1H-indazole-5-carboxamide]	< 100	100 to 500	> 500	> 500	–	–
CC(C)C[C@H](NC(=O)c1ccc2[nH]nc(-c3ccc(N4C5CCCC4CC(O)C5)cc3)c2c1)c1ccccn1 (stereo partly drawn) [Example A304, 3-(4-((1R,3S,5S)-3-hydroxy-9-azabicyclo[3.3.1]nonan-9-yl)phenyl)-N-((S)-3-methyl-1-(pyridin-2-yl)butyl)-1H-indazole-5-carboxamide]	< 100	100 to 500	100 to 500	100 to 500	–	–
O=C(NCC1(N2CCOCC2)CCCCC1)c1ccc2[nH]nc(-c3ccc(O[C@H]4C[C@H]5CC[C@@H](C4)N5C4COC4)cc3)c2c1 [Example A507, N-((1-morpholinocyclohexyl)methyl)-3-(4-(((1R,3R,5S)-8-(oxetan-3-yl)-8-azabicyclo[3.2.1]octan-3-yl)oxy)phenyl)-1H-indazole-5-carboxamide]	< 100	100 to 500	100 to 500	100 to 500	–	–
CN1C2CCC1CC(Oc1ccc(-c3n[nH]c4ccc(C(=O)N[C@H](c5ccccn5)C5CCCC5)cc34)cc1)C2 (stereo partly drawn) [Example A252, N-((S)-cyclopentyl(pyridin-2-yl)methyl)-3-(4-(((1R,3R,5S)-8-methyl-8-azabicyclo[3.2.1]octan-3-yl)oxy)phenyl)-1H-indazole-5-carboxamide]	< 100	< 100	< 100	< 100	–	–
CC(C)[C@H](NC(=O)c1ccc2[nH]nc(-c3ccc(N4C5CCC4CC(O)C5)cc3)c2c1)c1ccccc1Cl (stereo partly drawn) [Example A514, N-((S)-1-(2-chlorophenyl)-2-methylpropyl)-3-(4-((1R,3R,5S)-3-hydroxy-8-azabicyclo[3.2.1]octan-8-yl)phenyl)-1H-indazole-5-carboxamide]	< 100	–	< 100	–	–	–
O=C(N[C@H](c1ccccn1)C1CCCC1)c1ccc2[nH]nc(-c3ccc(N4C5CCC4CC(O)C5)cc3)c2c1 (stereo partly shown) [Example A513]	< 100	–	< 100	–	–	–
CN1C2COCC1CC(Oc1ccc(-c3n[nH]c4ccc(C(=O)NC(c5ccccn5)C5CCCC5)cc34)cc1)C2 [Example A392, N-(cyclopentyl (pyridin-2-yl)methyl)-3-(4-(((1R,5S,7s)-9-methyl-3-oxa-9-azabicyclo [3.3.1]nonan-7-yl)oxy)phenyl)-1H-indazole-5-carboxamide]	< 100	< 100	–	< 100	–	–
